Data as given in US4874898A, “Novel substituted anthrasteroid derivatives” (Shionogi and Co., Ltd. Patent Department, priority 1987, dated 1989).

Key:
seminal vesicles [1] = test: Assay for Antiandrogenic Activity (Subcutaneous administration), seminal vesicle weight; type: in vivo, SD-JCL male rats (castrated); details: for I. R. (%) A* (Inhibition rate, seminal vesicle) / Weight (Mean mg ± S.E.) A* (seminal vesicle): 7 days; for I. R. (%) A* (Inhibition rate, seminal vesicle): with testosterone propionate 0.02 mg/day, Table 1-1; for Weight (Mean mg ± S.E.) A* (seminal vesicle) / I. R. (%) A* (seminal vesicle): Table 1-2
Procedure: (§1) Assay for Antiandrogenic Activity (Subcutaneous administration)
(§2) The three week-old SD-JCL male rats were castrated and the drug treatment was started from three days after the castration. The rats were divided into groups; one group consists of six rats. One group was intact with any drug, the 2nd group was treated subcutaneously with a solution or suspension of 0.02 mg of testosterone propionate in sesame oil a day, and the other groups was treated with 0.1 to 3 mg of the test compound and 0.02 mg of testosterone propionate in sesame oil a day. This treatment was carried out for 7 days, successively. The rats were killed next day of the last treatment and the seminal vesicles and ventral prostates were taken out and weighed. Antiandrogenic activity of the test compounds were estimated as […] of seminal vesicles and ventral prostates induced by testosterone propionate.

ventral prostates [2] = test: Assay for Antiandrogenic Activity (Subcutaneous administration), ventral prostate weight; type: in vivo, SD-JCL male rats (castrated); details: for I. R. (%) B* (Inhibition rate, prostate) / Weight (Mean mg ± S.E.) B* (prostate): 7 days; for I. R. (%) B* (Inhibition rate, prostate): with testosterone propionate 0.02 mg/day, Table 1-1; for Weight (Mean mg ± S.E.) B* (prostate) / I. R. (%) B* (prostate): Table 1-2
Procedure: as §1, §2

seminal vesicles [3] = test: Assay for Antiandrogenic Activity (Oral Administration), seminal vesicle weight; type: in vivo, SD-JCL male rats (castrated); details: 3 mg orally, 7 days, with testosterone propionate 0.02 mg/day s.c.; Table 2
Procedure: (§3) Assay for Antiandrogenic Activity (Oral Administration)
(§4) The three week-old SD-JCL male rats were castrated and the drug treatment was started from three days after the castration. The rats were divided into groups; one group consists of six rats. One group was treated with 0.02 mg of testosterone propionate in sesame oil a day by injecting subcutaneously and the other groups were treated with 0.02 mg of testosterone propionate and simultaneously treated orally with a suspension of 3 mg of the test compound in sesame oil. The castrated control group was treated with sesame oil. This treatment was continued for 7 days, successively. The rats were killed 24 hours after the last treatment and the seminal vesicles and ventral prostates were taken out and weighed.

ventral prostates [4] = test: Assay for Antiandrogenic Activity (Oral Administration), ventral prostate weight; type: in vivo, SD-JCL male rats (castrated); details: 3 mg orally, 7 days, with testosterone propionate 0.02 mg/day s.c.; Table 2
Procedure: as §3, §4

[5] = test system: Shionogi-carcinoma 115 (SC-115); test: Assay for growth inhibitory activity against androgen-dependent tumor (Shionogi-carcinoma 115); type: in vivo, mice (castrated); details: 14 days
Source text: The followings show an assay for antiandrogenic activity against androgen-dependent tumor, Shionogi-carcinoma 115 (SC-115). The SC-115 is a tumor cell which grows in the presence of an androgen and its hormone dependency is widely known as a prostatic cancer model. Therefore, the androgenic activity is also estimated by examining the growth inhibition effect against this tumor.
Assay for growth inhibitory activity against androgen-dependent tumor (Shionogi-carcinoma 115)
The six week-old mice were castrated and […] of Shionogi-carcinoma tumor pieces was grafted into the back subcutaneously on the fifth day from the castration. The grafted mice were divided into groups, each consisting of seven mice, and the drug treatment was started immediately after the graft. One group was intact with any drug, and the 2nd group was treated subcutaneously with 0.1 mg of testosterone propionate a day. The other groups were treated subcutaneously with a suspension of 0.1 mg of testosterone propionate and 0.1 to 2.0 mg per day of test compounds a day as a conventional steroid solution. This treatment was carried out for 14 days, successively. The mice were killed next day of the last treatment and the tumor was taken out to weigh.

[6] = 0.1 mg/day s.c., with testosterone propionate 0.1 mg/day
[7] = 0.5 mg/day s.c., with testosterone propionate 0.1 mg/day
[8] = 2.0 mg/day s.c., with testosterone propionate 0.1 mg/day
[9] = testosterone propionate alone, 0.02 mg/day s.c.
[10] = 0.1 mg/day s.c., with testosterone propionate
[11] = 0.3 mg/day s.c., with testosterone propionate
[12] = 1 mg/day s.c., with testosterone propionate
[13] = 3 mg/day s.c., with testosterone propionate

CC1C2=CC(=O)CCC2CC2C1CCC1(C)C(O)CCC21 (stereo not shown)
I. R. (%) A* (Inhibition rate, seminal vesicle) (seminal vesicles [1]; 1 mg/day s.c.): 25%

CC1=C2C=CC3(C)C(O)CCC3C2CC2CCC(=O)C=C12 (stereo not shown)
I. R. (%) B* (Inhibition rate, prostate) (ventral prostates [2]; 1 mg/day s.c.): 44% | I. R. (%) A* (Inhibition rate, seminal vesicle) (seminal vesicles [1]; 1 mg/day s.c.): 69%

CC1=C2CCC3(C)C(=O)CCC3C2CC2CCC(=O)C=C12 (stereo not shown)
I. R. (%) B* (Inhibition rate, prostate) (ventral prostates [2]; 1 mg/day s.c.): 42% | I. R. (%) A* (Inhibition rate, seminal vesicle) (seminal vesicles [1]; 1 mg/day s.c.): 57%

CCC(=O)OC1CCC2C3CC4CCC(=O)C=C4C(C)=C3CCC12C (stereo not shown)
I. R. (%) B* (Inhibition rate, prostate) (ventral prostates [2]; 1 mg/day s.c.): 50% | I. R. (%) A* (Inhibition rate, seminal vesicle) (seminal vesicles [1]; 1 mg/day s.c.): 74%

CC1=C2CCC3(C)C(CCC3(C)O)C2CC2CCC(=O)C=C12 (stereo not shown)
I. R. (%) B* (Inhibition rate, prostate) (ventral prostates [2]; 1 mg/day s.c.): 41% | I. R. (%) A* (Inhibition rate, seminal vesicle) (seminal vesicles [1]; 1 mg/day s.c.): 67%

CC1=C2CCC3(C)C(O)C(F)CC3C2CC2CCC(=O)C=C12 (stereo not shown)
I. R. (%) B* (Inhibition rate, prostate) (ventral prostates [2]; 1 mg/day s.c.): 52% | I. R. (%) A* (Inhibition rate, seminal vesicle) (seminal vesicles [1]; 1 mg/day s.c.): 77%

CC1=C2CCC3(C)C(OC4=CCCCCCC4)CCC3C2CC2CCC(=O)C=C12 (stereo not shown)
I. R. (%) A* (seminal vesicle) (seminal vesicles [3]): 39% | I. R. (%) B* (prostate) (ventral prostates [4]): 34%

CC1=C2CC3(CCC2CC2C1=CCC1(C)C(=O)CCC21)OCCO3 (stereo not shown)
I. R. (%) A* (seminal vesicle) (seminal vesicles [3]): 26% | I. R. (%) B* (prostate) (ventral prostates [4]): 25%

CC1=C2CCC3(C)C(O)C(CBr)CC3C2CC2CCC(=O)C=C12 (stereo not shown)
I. R. (%) A* (seminal vesicle) (seminal vesicles [3]): 51% | I. R. (%) B* (prostate) (ventral prostates [4]): 43%

CC1=C2CCC3(C)C(O)C(Br)CC3C2CC2CCC(=O)C=C12 (stereo not shown)
Inhibition Rate (%) of tumor weight [5, 6]: 11% | Tumor Weight (Mean mg ± S.E.) [5, 6]: 2871 ± 277 mg | Inhibition Rate (%) of tumor weight [5, 7]: 40% | Tumor Weight (Mean mg ± S.E.) [5, 7]: 1950 ± 144 mg | Inhibition Rate (%) of tumor weight [5, 8]: 69% | Tumor Weight (Mean mg ± S.E.) [5, 8]: 1004 mg

CCC(=O)O[C@H]1CC[C@H]2[C@@H]3CCC4=CC(=O)CC[C@]4(C)[C@H]3CC[C@]12C [Testosterone propionate, testosterone propionate, reference compound]
Tumor Weight (Mean mg ± S.E.) ([5]; testosterone propionate alone, 0.1 mg/day s.c.): 3241 ± 456 mg | Weight (Mean mg ± S.E.) B* (prostate) (ventral prostates [2]; [9]): 40.1 ± 1.3 mg | Weight (Mean mg ± S.E.) A* (seminal vesicle) (seminal vesicles [1]; [9]): 26.1 ± 0.8 mg

CC1=C2CCC3(C)C(O)CCC3C2CC2CCC(=O)C=C12 (stereo not shown) [drawing 52]
Weight (Mean mg ± S.E.) B* (prostate) (ventral prostates [2]; [10]): 37.9 ± 3.0 mg | Weight (Mean mg ± S.E.) B* (prostate) (ventral prostates [2]; [11]): 37.3 ± 3.0 mg | Weight (Mean mg ± S.E.) B* (prostate) (ventral prostates [2]; [12]): 27.5 ± 2.2 mg | I. R. (%) B* (prostate) (ventral prostates [2]; [12]): 43% | Weight (Mean mg ± S.E.) B* (prostate) (ventral prostates [2]; [13]): 23.8 ± 1.6 mg | I. R. (%) B* (prostate) (ventral prostates [2]; [13]): 55% | Weight (Mean mg ± S.E.) A* (seminal vesicle) (seminal vesicles [1]; [10]): 19.9 ± 0.6 mg | I. R. (%) A* (seminal vesicle) (seminal vesicles [1]; [10]): 31% | Weight (Mean mg ± S.E.) A* (seminal vesicle) (seminal vesicles [1]; [11]): 20.7 ± 1.3 mg | I. R. (%) A* (seminal vesicle) (seminal vesicles [1]; [11]): 27% | Weight (Mean mg ± S.E.) A* (seminal vesicle) (seminal vesicles [1]; [12]): 15.0 ± 0.7 mg | I. R. (%) A* (seminal vesicle) (seminal vesicles [1]; [12]): 56% | Weight (Mean mg ± S.E.) A* (seminal vesicle) (seminal vesicles [1]; [13]): 11.4 ± 0.8 mg | I. R. (%) A* (seminal vesicle) (seminal vesicles [1]; [13]): 74%

CC1=C2CCC3(C)C(O)CCC3C2CC2CCC(=O)C=C12 (stereo not shown) [drawing 56]
Inhibition Rate (%) of tumor weight [5, 6]: 48% | Tumor Weight (Mean mg ± S.E.) [5, 6]: 1682 ± 177 mg | Inhibition Rate (%) of tumor weight [5, 7]: 59% | Tumor Weight (Mean mg ± S.E.) [5, 7]: 1343 ± 283 mg | Inhibition Rate (%) of tumor weight [5, 8]: 92% | Tumor Weight (Mean mg ± S.E.) [5, 8]: 255 mg
